Measurements from patent US6541503B2, “Substituted oxindole derivatives as protein tyrosine kinase and as protein serine/threonine kinase inhibitors” (SmithKline Beecham Corporation, priority 1997, dated 2003).
Like-named read-outs stand apart in the source and are kept apart here.

Columns and labels:
UL97 = biological target: T1, UL97 (Human cytomegalovirus, UniProt P16788); experiment: UL97 protein kinase assay, 32P transfer from ATP to histone H2B; type: biochemical
T1 construct: GST; made in house; host or cells: baculovirus vector in Sf9 cells
T1 sequence (P16788 whole entry): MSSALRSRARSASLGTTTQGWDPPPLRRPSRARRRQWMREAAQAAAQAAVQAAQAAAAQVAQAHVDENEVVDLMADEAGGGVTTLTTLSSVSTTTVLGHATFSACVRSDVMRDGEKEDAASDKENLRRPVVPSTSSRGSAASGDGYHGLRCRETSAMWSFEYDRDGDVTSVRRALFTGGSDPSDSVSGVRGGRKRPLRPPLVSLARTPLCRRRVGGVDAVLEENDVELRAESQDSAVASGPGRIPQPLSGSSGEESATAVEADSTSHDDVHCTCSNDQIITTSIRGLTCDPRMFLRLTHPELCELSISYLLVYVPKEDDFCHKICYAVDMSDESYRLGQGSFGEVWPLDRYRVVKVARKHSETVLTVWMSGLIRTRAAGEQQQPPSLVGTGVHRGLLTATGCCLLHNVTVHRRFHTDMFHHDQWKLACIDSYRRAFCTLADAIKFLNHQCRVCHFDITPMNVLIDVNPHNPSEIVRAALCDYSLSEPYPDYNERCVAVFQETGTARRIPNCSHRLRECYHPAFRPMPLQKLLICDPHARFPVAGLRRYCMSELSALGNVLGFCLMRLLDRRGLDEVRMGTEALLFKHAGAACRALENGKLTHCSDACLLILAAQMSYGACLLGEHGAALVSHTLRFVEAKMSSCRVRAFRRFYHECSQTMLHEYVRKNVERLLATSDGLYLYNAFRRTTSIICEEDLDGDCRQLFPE
Procedure: UL97 was produced as a GST fusion protein from a baculovirus vector expressed in sf9 cells as described by He (He, et al., Journal of Virology 1997, 71, 405-11). UL97 was assayed as a protein kinase using ^32P transfer from ATP to histone H2B with detection of radiolabeled histone bound to phosphocellulose. Assay mixes for testing inhibitors of UL97 activity contained 2 mM [γ^32P]-ATP, 15 mM histone H2B, 50 mM sodiumCHES, pH 9.5, 1 M NaCl, 2 mM dithiothreitol and 10 mM MgCl2. Inhibitors were dissolved in diluted DMSO to give a final DMSO concentration in the reaction of 1% DMSO. After incubation at 20° C., the reactions were terminated by addition of 10 volumes of 75 mM phosphoric acid, 30 mM ATP, 1 mM EDTA, then were spotted onto phosphocellulose filters and washed four times with 75 mM phosphoric acid. Radioactivity was determined by liquid scintillation counting.

[1] = system: RKO colon adenocarcinoma cells; experiment: FACS assay (cell death by flow cytometry), RKO; type: cell-based, human; conditions: Homo sapiens, 72 h, read-out: FACS RKO IC50
Procedure: These assays allow determination of both cell death and changes in cell cycle profile in cells following treatment of the compound. The assay is performend as follows:
1. Cells are incubated in DMEM to which 10% FCS has been added in a humidified incubator at 37° C. and 5% by volume of CO2 in air. The cells are innoculated in 6-well plates at a density of 0.5-5×10^5 cells per well.
2. The test compound is added in serial dilutions 24-36 h after plating in 0.5% DMSO. The plates are then incubated a further 72 h in the presence of the compound. During this time, cells in control cultures undergo at least three cell divisions.
3. After incubation, the media is collected and cells are harvested by trypsinization. The cells and media are pooled and pelleted by centrifugation.
4. The cell pellet is fixed in a final volume of 3 mL of 50% ice cold MeOH and incubated for a minimum of 30 min at −20° C.
5. The cells are pelleted by centrifugation and resuspended in 0.5 mL PBS containing 1%FCS, […] Propidium Iodide (PI) and 5 mg/mL RNase A and incubated 30 min at 37° C. in the dark.
6. The samples are analysed by flow cytometry using the relative incorporation of PI as a measure of DNA content of each cell. The % Dead cells is recorded as % of events with less than 2N DNA.
HDF are normal diploid fibroblast cells. RKO are colon adenocarcinoma cells and MES/SA are […].

MDA MB468 = experiment: MTT assay, MDA MB468; type: cell-based, human
Procedure: Compounds are tested for their ability to inhibit cell proliferation and cell viability. The metabolic conversion of 3-(4,5-dimethylthiazol-2-yl)-2,5-diphenyltetrazolium bromide (MTT, Sigma #M2128) to a reduced form is a commonly used measure of cellular viability. Following is the procedure:
Cells are maintained in 75 cm^2 tissue culture flasks until ready for use. The cells are grown and plated for the assay in Dulbecco's modified Eagle's media (DMEM) containing 10% fetal bovine serum. For example, the following cell lines can be used: a) human foreskin fibroblasts (HFF); b) HT29 (human colon carcinoma cell line); c)MDA-MB-468 (human breast carcinoma cell line); d) RKO (human colon adenocarcinoma cell line); e) SW620 (human colon carcinoma cell line); f) A549 (human lung carcinoma cell line); and g) MIA PACA (human pancreatic carcinoma cell line). Cells are maintained at 37° C. in 10% CO2, 90% humidified air. Cells are plated in 96-well tissue culture plates at the densities listed below. 100 μL of cell suspension is added to each well of the 96-well plate except the top row of the plate which contains no cells and serves as a reference for the spectrophotometer.
Cells are incubated overnight in DMEM containing 10% fetal bovine serum at 37° C. in 10% CO2, 90% humidified air prior to dosing. […] Compounds with solubilities of less than 30 μM are dosed at the highest soluble concentration. Stock solutions of compounds are made in 100% dimethyl sulfoxide (DMSO). Stock solutions are diluted in DMEM containing 100 μg/ml gentamicin and 0.3 to 0.6% DMSO at the twice the highest concentration to be placed on the cells. If compounds have been dissolved in DMSO the final concentration of DMSO on the cells is kept below 0.3%. Three-fold serial dilutions are performed on each compound to prepare 10 concentrations of the compound for dosing. 100 μl of diluted compound is added to the 100 μl of media currently on the dish. For each concentration of compound, 2-4 replicate wells are prepared.
Cells are returned to incubator and allowed to proliferate in the presence of compound for 72 h before addition of MTT. MTT is prepared in phosphate buffered saline (Irvine Scientific #9240) at a concentration of 2 mg/ml. 50 μl per well of MTT solution is added to the 200 μl of media to yield a final concentration of 0.4 mg/ml and plates are returned to the incubator for 4 h. After 4 h incubation the media, compound and MTT mixture is aspirated from the plates and 100 μl of 100% DMSO is added to each well in addition to 25 μl of Sorenson's Buffer (0.1M glycine, 0.1M NaCl, pH 10.5). Quantitation of metabolic reduction of MTT in each plate is performed by reading optical density at 570 nm wavelength on a Molecular Devices UVmax microplate reader. Growth inhibition curves and 50% inhibitory concentrations are determined using Microsoft Excel.

[2] = Homo sapiens, MDA-MB-468, 72 h; read-out: MTT MDA MB468 IC50

Structure (SMILES) | IC50 (UL97) | IC50 ([1]; 50% cell death) | IC50 (MDA MB468; [2]) | IC50 [1] | IC50 (MDA MB468; Homo sapiens, MDA-MB-468, 72 h, read-out: MTT MDA MB468 IC50)
CC(C)(CO)CNS(=O)(=O)c1ccc(NC=C2C(=O)Nc3ccc4ncsc4c32)cc1 [Example 77, N-(3-Hydroxy-2,2-dimethyl-propyl)-4-[(7-oxo-6,7-dihydro-1-thia-3,6-diaza-as-indacen-8-ylidenemethyl)-amino]-benzenesulfonamide] | 1 to 10 nM | 1100 to 5000 nM | > 5000 nM |  | 
CNS(=O)(=O)Cc1ccc(NN=C2C(=O)Nc3cc(C)c(O)c(C)c32)cc1 [Example 99] | 1 to 10 nM | 100 to 500 nM | 100 to 500 nM |  | 
O=C1Nc2ccc3ncsc3c2C1=CNc1ccc(S(=O)(=O)Nc2ccccn2)cc1 [Example 72, 4-[(7-Oxo-6,7-dihydro-1-thia-3,6-diaza-as-indacen-8-ylidenemethyl)-amino]-N-pyridin-2-yl-benzenesulfonamide] | 11 to 50 nM |  |  | 1100 to 5000 nM | > 5000 nM
CS(=O)(=O)Cc1ccc(NC=C2C(=O)Nc3ccc4ncsc4c32)cc1 [Example 76, 8-(4-Methylsulfonylmethyl-phenylamino-methylene)-6,8-dihydro-1-thia-3,6-diaza-as-indacen-7-one] |  | 1100 to 5000 nM | > 5000 nM |  | 
CNS(=O)(=O)Cc1ccc(NN=C2C(=O)Nc3ccc4ncccc4c32)cc1 [Example 68, N-Methyl-C-{4-[N′-(2-oxo-2,3-dihydro-pyrrolo[3,2-f]quinolin-1-ylidene)-hydrazino]-phenyl}-methanesulfonamide] | 11 to 50 nM |  |  | 1100 to 5000 nM | 
